Reference: publication PMC10518255, “A first-in-class pan-lysyl oxidase inhibitor impairs stromal remodeling and enhances gemcitabine response and survival in pancreatic cancer” (Nature Cancer, 2023)
“And” between values parts separate entries of the source, which are not always exact repeats. Equal entries are not always repeated.

Legend:
KPC PDAC tumors = assay: Tumor weight at end point, KPC survival study; format: in vivo, mouse; details: Extended Data 5B; KPC tumours; individual animals
Excerpt: Treatment of KPC mice with gemcitabine led to a slowing of primary tumor progression, increasing survival from a median survival of 85 days in untreated mice to 125 days in gemcitabine-treated mice (P = 0.0005) (Fig. 4b,c, blue versus red). PXS-5505 as a monotherapy led to no changes in median survival compared to vehicle (85 versus 81 days) (Fig. 4c, blue versus green).
Extended Data Fig. 5 PXS-5505 in combination with gemcitabine in vivo. a. […] Signal is defined as the enzyme activity in the aorta, while noise is measured in the presence of a high concentration (300 µM) BAPN to abolish any lysyl oxidase family activity. […] Data presented as mean values +/− SD b. […] Data presented as mean values +/− SD. c. FITC-dextran (molecular weight: 10 kDa) signal quantification from KPC tumor end point from each treatment group (vehicle n = 3 biologically independent animals, PXS-5505 n = 5 biologically independent animals, Gem n = 5 biologically independent animals, PXS-5505 + Gem n = 5 biologically independent animals). 4 ROIs taken per mouse. P-values determined by Welchs t-test. […] Quantification of red birefringent (mature) collagen fibers from human PDXs at end point after 3 cycles of treatment, treated as indicated. […] P values determined by Welchs t-test. g. […] Quantification of green birefringent (nascent) collagen fibers from human PDXs at end point, treated as indicated. […]

KPC mouse model of PDAC = assay: Overt metastatic lesions observed during necropsy, KPC survival study; format: in vivo; details: for Ascites / overt metastatic lesions, Diaphragm / overt metastatic lesions, Liver / overt metastatic lesions, Lungs / overt metastatic lesions, Small intestine: KPC mice
Procedure: Fig. 4 PXS-5505 administered in a KPC in vivo survival study. a, Schematic of the KPC in vivo survival study. Presence of a primary tumor in KPC mice was confirmed by two independent researchers (positive diagnosis) before commencement of daily treatment (Tx) on one of four treatment arms as follows: vehicle, 0.9% saline; Gem, twice-weekly gemcitabine (100 mg kg^−1 i.p.); PXS-5505, daily PXS-5505 at 20 mg kg^−1 i.p.; and PXS-5505 + Gem, daily PXS-5505 at 20 mg kg^−1 i.p. + twice-weekly gemcitabine (100 mg kg^−1 i.p.). b, Table of median survival (since diagnosis/commencement of treatment) across the four treatment groups (n = 30 biologically independent animals (vehicle), n = 31 biologically independent animals (Gem), n = 36 biologically independent animals (PXS-5505), n = 46 biologically independent animals (PXS-5505 + Gem)). c, Kaplan–Meier curves for overall survival across treatment arms (n = 30 biologically independent animals (vehicle), n = 31 biologically independent animals (Gem), n = 36 biologically independent animals (PXS-5505), n = 46 biologically independent animals (PXS-5505 + Gem)). P values determined by log-rank (Mantel–Cox) test. d, Representative maximum intensity projections of SHG multiphoton imaging for tumors from each treatment group (n = 1 FOV taken from one biologically independent animal per group) at end point (scale bars, 100 μm) and quantification of SHG peak signal intensity (n = 5 biologically independent animals per group and five FOV per animal). Data are mean ± s.d. […] Quantification of metastases (n = 18 biologically independent animals (vehicle), n = 18 biologically independent animals (Gem), n = 17 biologically independent animals (PXS-5505), n = 15 biologically independent animals (PXS-5505 + Gem)). Data are mean ± s.d.
We quantified presence of overt metastatic dissemination to organs across the different treatment groups (Fig. 4f).
For the KPC autochthonous model, gemcitabine HCl (Jomar Life Research) or vehicle control (0.9% saline) was administered by i.p. injection twice weekly (100 mg kg^−1 in saline) on day 2 and 4 of the treatment cycle until the end point was reached. GLP-grade PXS-5505 (20 mg kg^−1 in saline) or vehicle (0.9% saline) was administered daily by i.p. injection. Treatment of mice was initiated upon detection of a palpable tumor, verified by two independent researchers and monitoring of mice continued daily until the experimental end point. End points were defined as development of ascites, overnight weight loss >10% of body weight, hunching posture and/or signs of distress and/or suffering, total weight loss ≥20% from maximum body weight or tumor interfering with mobility and access to food and water. The maximal tumor burden allowed by ethics was not exceeded. At the end point, primary tumors and secondary metastatic organs (including liver, small intestine, diaphragm and lungs) were collected and samples were taken for formalin fixation overnight, unconfined compression analysis and snap-frozen for tissue banking. Fixed tissues were processed according to standard histology protocols and paraffin-embedded.

SMILES: Nc1ccn([C@@H]2O[C@H](CO)[C@@H](O)C2(F)F)c(=O)n1 [Gem, gemcitabine]
- Tumour weight at endpoint (KPC PDAC tumors): 0.28 grams and 0.51 grams and 0.6 grams and 0.69 grams and 0.41 grams and 0.462 grams and 0.3 grams and 0.26 grams and 0.37 grams and 1.42 grams and 0.75 grams and 0.63 grams and 1.2 grams and 0.7 grams and 0.4 grams
- Ascites (number of mice) (KPC mouse model of PDAC): 1/20
- overt metastatic lesions, Diaphragm (number of mice) (KPC mouse model of PDAC): 3/20
- overt metastatic lesions, Liver (number of mice) (KPC mouse model of PDAC): 3/20
- overt metastatic lesions, Lungs (number of mice) (KPC mouse model of PDAC): 5/20
- overt metastatic lesions, Small intestine (number of mice) (KPC mouse model of PDAC): 9/20
- Ascites (KPC mouse model of PDAC): 5%
- overt metastatic lesions, Diaphragm (KPC mouse model of PDAC): 15%
- overt metastatic lesions, Liver (KPC mouse model of PDAC): 15%
- overt metastatic lesions, Lungs (KPC mouse model of PDAC): 25%
- overt metastatic lesions, Small intestine (KPC mouse model of PDAC): 45%

SMILES: Cl.Cl.NC/C=C(\F)CS(=O)(=O)c1cccc2cccnc12.O [PXS-5505, (Z)-3-fluoro-4-(quinolin-8-ylsulfonyl)but-2-en-1-amine dihydrochloride monohydrate]
- Tumour weight at endpoint (KPC PDAC tumors): 0.55 grams and 0.54 grams and 0.19 grams and 0.83 grams and 0.33 grams and 1.18 grams and 0.43 grams and 0.96 grams and 1.94 grams and 0.78 grams and 1.16 grams and 1.34 grams and 0.68 grams and 0.3 grams and 1.3 grams and 0.5 grams and 0.8 grams
- Ascites (number of mice) (KPC mouse model of PDAC): 3/23
- overt metastatic lesions, Diaphragm (number of mice) (KPC mouse model of PDAC): 2/23
- overt metastatic lesions, Liver (number of mice) (KPC mouse model of PDAC): 3/23
- overt metastatic lesions, Lungs (number of mice) (KPC mouse model of PDAC): 2/23
- overt metastatic lesions, Small intestine (number of mice) (KPC mouse model of PDAC): 8/23
- Ascites (KPC mouse model of PDAC): 13%
- overt metastatic lesions, Diaphragm (KPC mouse model of PDAC): 9%
- overt metastatic lesions, Liver (KPC mouse model of PDAC): 13%
- overt metastatic lesions, Lungs (KPC mouse model of PDAC): 9%
- overt metastatic lesions, Small intestine (KPC mouse model of PDAC): 35%
